Assay results published in US20250325499A1, “IMMUNO-ABLATION TREATMENT FOR SOLID TUMORS” (Northwestern University, priority 2022, published 2025).

Legend:
PD-L1 = test: Western blot / flow cytometry of PD-L1 in N1S1 hepatoma cells; assay type: cell-based; conditions: ethanol 10, 5 and 1%
Protocol: (§1) N1S1 cells were seeded in the 8 cm culture dishes and cultured at 5% CO2, 37° C. overnight. The cells were treated with various groups for […]: ethanol (25, 20, 15, 10, and 5%) for 4, 12, and 24 h, and 15% ethanol+Cur1, 10% ethanol+Cur1, 15% ethanol+Cur2, 10% ethanol+Cur2, 15% ethanol+Cur3, and 10% ethanol+Cur3 for 24 h. […] No treatment of N1S1 was used as control. The cell lysates were collected and analyzed by Western blotting according to the manufacturer's instructions. Antibodies were used listed as below: GPX4 Rabbit anti-Human, Mouse, Rat, Polyclonal, Invitrogen™, catalog number: PIPA579321, dilution 0.1-0.5 μg/mL; p-STAT3 Rabbit mAb, cell signaling, catalog number: 9145, dilution 1:2000; p-p65 Rabbit mAb, cell signaling, catalog number: 3033, dilution 1:1000; PD-L1 Polyclonal Antibody, Invitrogen™, catalog number: PA5-20343, dilution 0.5-2 μg/mL; β-Actin (8H10D10) Mouse mAb (HRP Conjugate), cell signaling, catalog number: 12262, dilution 1:1000.
(§2) Western blot assay was then used to identify specific molecules associated with cancer cell response to the ethanol treatments. […] However, relatively low ethanol concentrations (10, 5, and 1%) increased the GPX-4 level at 12 h post-treatment compared to 4 h post-treatment, indicating a defensive response to the oxidative stress caused by ethanol. […]

N1S1 cells [1] = test: Cell viability assay (CCK-8); assay type: cell-based
Protocol: N1S1 cells (1×10^4/mL) were seeded onto 96-well plates. […] Then the cells were washed with PBS and replenished with fresh media. After 24 h or 48 hr incubation, the cells viability was measured with CCK-8 assay.

[2] = system: N1S1 HCC tumors in rat liver; test: In vivo abscopal effect of ethanol-curcumin treated N1S1 cells, tumor volume by MRI; conditions: left lobe inoculated with treated N1S1 cells (10% ethanol or 10% ethanol plus Cur2 0.5% w/v) mixed with non-treated cells, MRI 8-day post-inoculation
From the text: (§3) The rats in the control group were only inoculated in the right lobe of the liver with 5 million non-treated N1S1 cells. The right-side tumors (arrow in FIG. 5A) were established for testing abscopal effect. These tumors were collected for an immune status assay. The tumor in the control group was used as the baseline.

p-p65 = test: Western blot of p-p65 in N1S1 hepatoma cells; assay type: cell-based; conditions: ethanol 10, 5 and 1%
Protocol: as §1, §2

p-STAT3 = test: Western blot of p-STAT3 in N1S1 hepatoma cells; assay type: cell-based; conditions: ethanol 10, 5 and 1%
Protocol: as §1, §2

[3] = system: N1S1 HCC tumors in rat liver; test: In vivo immune status of right-side tumors by flow cytometry; conditions: 8 days post treatment
From the text: To test in vivo tumor neutrophil cell populations, rats were sacrificed, and tumors were harvested at 8 days post treatment and examined by flow cytometry after immunofluorescence staining with anti-CD45-BV605, anti-Granulocytes-PE, and anti-CD11b/c-PerCP/eF710. To determine the intra-tumoral infiltration of CD8+ (CD3+CD4-CD8+), lymphocytes were stained with anti-CD45-BV605, anti-CD3-FITC, anti-CD11b/c-PerCP/eF710, anti-CD4-APC/Cy7, anti-CD8-V450, and anti-IFN-gamma-AF647. To determine the intra-tumoral infiltration of CD4+ (Treg), lymphocytes were stained with anti-CD45-BV605, anti-CD3-FITC, anti-CD11b/c-PerCP/eF710, anti-CD4-APC/Cy7, anti-CD8-V450, anti-CD25-PE, and anti-Foxp3-APC. All antibodies were diluted with the ratio of 1:100 and signal color beads (OneComp eBeads™ Compensation Beads) and unstained bead were used for compensation.
as §3

GPX-4 = system: GPX-4
Protocol: as §1
Western blot assay was then used to identify specific molecules associated with cancer cell response to the ethanol treatments. […] However, relatively low ethanol concentrations (10, 5, and 1%) increased the GPX-4 level at 12 h post-treatment compared to 4 h post-treatment, indicating a defensive response to the oxidative stress caused by ethanol. […] This is in agreement with the results of the cell viability and Annexin-V/PI assays (FIG. 1).

N1S1 cells [4] = system: N1S1 cells
Protocol: (§4) N1S1 cells were seeded onto the six-well plate (2×10^5/well). […] After washing the cells with PBS, they were fixed with 4% formalin at room temperature for 15 minutes. The results were examined by flow cytometry.

N1S1 cells [5] = test: Cellular uptake of curcumin (confocal images, flow cytometry)
Protocol: Briefly, the N1S1 cells (1×10^5/mL) were cultured in a confocal dish (MatTek, 35 mm dish with 14 mm glass bottom). The cellular nucleus was stained with DAPI. Cell membranes were stained with Dil red (D282) following the protocol from ThermoFisher. […] The cells were then fixed by 4% paraformaldehyde and visualized with a confocal microscope (Nikon AIRS).
as §4

**Q.** `CCO` [ethanol] was tested. Which PD-L1 expression (PD-L1) did it give?
**A.** Its PD-L1 expression is “upregulation”.

**Q.** And the “cell-killing effect on N1S1 hepatoma cells (CCK-8 cell viability)” value (N1S1 cells [1]; ethanol 15% to 1%, 5-min and 10-min coincubation)?
**A.** The value was “modest cell-killing effect”.

**Q.** What about the “growth inhibition of N1S1 hepatoma cells (CCK-8 cell viability)” value (N1S1 cells [1]; ethanol 25% and 20%, 5-min and 10-min coincubation, 24 h and 48 h post-treatment) of the same molecule?
**A.** The value was “efficient growth inhibition”.

**Q.** And the “liver cancer cell N1S1 growth” value (N1S1 cells [1]; ethanol 25% to 5%, 10 min coincubation)?
**A.** The value was “inhibits”.

**Q.** And the “cell viability at 48 h post-treatment” value (N1S1 cells [1]; lower ethanol concentrations, 5-min and 10-min coincubation, 48 h vs 24 h)?
**A.** Its value is “recovery of cell viability”.

**Q.** And the “average tumor volume of right-side HCC tumors” value [2]?
**A.** Its value is “about 130 mm^3”.

**Q.** What about the p-p65 activation (p-p65) of the same molecule?
**A.** Its p-p65 activation is “consistent activation”.

**Q.** What about the p-STAT3 activation (p-STAT3) of the same molecule?
**A.** The p-STAT3 activation was “consistent activation”.

**Q.** What about the “IL-17 T cells in right-side tumor, difference among groups” value [3] of the same molecule?
**A.** Its value is “no significant difference”.

**Q.** And the “neutrophil population in right-side tumor compared to control” value [3]?
**A.** Its value is “no significant difference”.

**Q.** What about the “population of Tregs in right-side tumor compared to control group” value [3] of the same molecule?
**A.** The value was “decreased population”.

**Q.** And the “GPX-4 level at 12 h compared to 4 h post-treatment” value (GPX-4; ethanol 10, 5 and 1%)?
**A.** Its value is “increased”.

**Q.** What about the “expression of GPX-4 at 24 h post-treatment” value (GPX-4; ethanol 10, 5 and 1%, 24 h) of the same molecule?
**A.** The value was “reduced to normal levels”.

**Q.** And the GPX-4 level (GPX-4; ethanol 25, 20 and 15%, 4 h, 12 h and 24 h)?
**A.** Its GPX-4 level is “consistently low”.

**Q.** And the “early apoptosis and late apoptosis populations (Annexin-V/PI)” value (N1S1 cells [4]; 10-min coincubation, various ethanol concentrations, found even at 0 h)?
**A.** Its value is “Dosage-dependent increase”.

**Q.** And the “live cell populations at 48 h” value (N1S1 cells [4]; ethanol 15%, 10%, 5%, 1%, 48 h)?
**A.** The value was “higher live cell populations”.

**Q.** What about the “late apoptosis population at 48 h compared to 0 h and 24 h” value (N1S1 cells [4]; ethanol 25% and 20%, 10-min coincubation) of the same molecule?
**A.** Its value is “decreased late apoptosis population”.

**Q.** And the “live cell populations (Annexin-V negative and PI negative)” value (N1S1 cells [4]; ethanol 25% and 20%, all time points (0, 24, 48 h))?
**A.** Its value is “remained low”.

**Q.** For `COc1cc(/C=C/C(=O)CC(=O)/C=C/c2ccc(O)c(OC)c2)ccc1O` [curcumin, (1E,6E)-1,7-bis(4-hydroxy-3-methoxyphenyl)hepta-1,6-diene-3,5-dione], which “cellular uptake of curcumin (green fluorescence signal)” value (N1S1 cells [5]; higher concentration of ethanol in ethanol-curcumin solution) is on record?
**A.** Its value is “higher cellular uptake”.

**Q.** What about the “time curcumin maintained in N1S1 hepatoma cells” value (N1S1 cells [5]; uptake amplified by the ethanol solution) of the same molecule?
**A.** The value was “at least 48 h”.
